Test results reported in patent publication US7691858B2, “Kinase inhibitors and methods of use thereof” (TargeGen, Inc., priority 2006, dated 2010).
Entries after “also recorded” stand apart in the source; their conditions may differ.

Legend:
[1] = test system: PAF-induced inflammatory edema; test: Rat hindpaw inflammation model, PAF; assay type: in vivo, Sprague Dawley rats
Description: (§1) FIG. 4. Inhibition of edema and inflammation. (a, b) Rats were injected i.v. with Evans blue dye and then intradermally with saline, VEGF or histamine. […] (c-f) Rat hindpaws were injected with either PAF (c & d) or dextran (e & f), and three hours later processed as H&E-stained paraffin sections. […] Images were taken of paws representing the mean group value for volume as presented in Results (original magnification 200×).
(§2) The Miles assay models a primarily endothelial-based response that develops rapidly (within minutes). As a comparator, we next employed a rodent hindpaw model where more complex inflammatory reactions develop over several hours. Agonists included PAF, a GPCR ligand that activates both EC and leukocytes, and dextran, a phagocytic stimulus for mast cell and leukocyte activation. […] Paw volume (a more quantitative measure of edema and inflammation) was reduced by 62% and 78% in response to PAF or dextran, respectively (n=8, P<0.001). Finally, to correlate these in vivo responses with the molecular target of interest, we monitored PI3K pathway signaling through Western blot analyses of Akt phosphorylation (a PI3K-mediated event).
(§3) In order to determine the influence of compounds on the development of inflammation, Sprague Dawley rats were first injected intravenously with either vehicle or test compound at 5 mg/kg, and then 30 min later either PBS (as a control), dextran or platelet activating factor (PAF) was injected into the plantar surface of the hindlimbs, dextran and PAF being known to induce localized inflammatory responses marked by edema. Three hours later, paw dimensions were measured using a caliper and paw volumes calculated; data are shown as the increase in paw volume (mm^3) as compared to controls (paws injected with PBS).

[2] = test system: dextran-induced inflammatory edema; test: Rat hindpaw inflammation model, dextran; assay type: in vivo, Sprague Dawley rats
Description: as §1, §2, §3

MAPKAP-K2 = molecular target: T1, MAPKAP-K2 (Homo sapiens, UniProt P49137); test: Kinase panel screen; assay type: biochemical; details: Compound I and ATP 10 μM
T1 construct: purchased Upstate USA or Invitrogen (commercial screening service)

Akt1 = molecular target: T2, Akt1 (Homo sapiens, UniProt P31749); test: Kinase panel screen; assay type: biochemical; details: Compound I at 1 μM and ATP at the apparent Km
T2 construct: purchased Upstate USA or Invitrogen (commercial screening service)
T2 sequence (P31749 whole entry): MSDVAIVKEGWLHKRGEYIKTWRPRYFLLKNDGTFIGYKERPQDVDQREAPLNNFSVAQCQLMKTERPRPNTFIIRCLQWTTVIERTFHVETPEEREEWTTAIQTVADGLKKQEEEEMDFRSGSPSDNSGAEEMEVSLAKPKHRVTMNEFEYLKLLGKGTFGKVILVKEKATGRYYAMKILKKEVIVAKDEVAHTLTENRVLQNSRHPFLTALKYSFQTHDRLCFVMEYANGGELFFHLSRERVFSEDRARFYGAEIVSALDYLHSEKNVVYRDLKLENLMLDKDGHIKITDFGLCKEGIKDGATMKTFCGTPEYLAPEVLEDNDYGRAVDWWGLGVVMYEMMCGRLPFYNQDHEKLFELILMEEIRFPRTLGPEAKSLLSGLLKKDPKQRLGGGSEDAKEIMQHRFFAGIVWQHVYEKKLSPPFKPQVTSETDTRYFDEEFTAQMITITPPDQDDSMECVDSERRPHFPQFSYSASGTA

MEK2 = molecular target: T3, MEK2 (Homo sapiens, UniProt P36507); test: Kinase panel screen; assay type: biochemical; details: Compound I at 1 μM and ATP at the apparent Km
T3 construct: purchased Upstate USA or Invitrogen (commercial screening service)
T3 sequence (P36507 whole entry): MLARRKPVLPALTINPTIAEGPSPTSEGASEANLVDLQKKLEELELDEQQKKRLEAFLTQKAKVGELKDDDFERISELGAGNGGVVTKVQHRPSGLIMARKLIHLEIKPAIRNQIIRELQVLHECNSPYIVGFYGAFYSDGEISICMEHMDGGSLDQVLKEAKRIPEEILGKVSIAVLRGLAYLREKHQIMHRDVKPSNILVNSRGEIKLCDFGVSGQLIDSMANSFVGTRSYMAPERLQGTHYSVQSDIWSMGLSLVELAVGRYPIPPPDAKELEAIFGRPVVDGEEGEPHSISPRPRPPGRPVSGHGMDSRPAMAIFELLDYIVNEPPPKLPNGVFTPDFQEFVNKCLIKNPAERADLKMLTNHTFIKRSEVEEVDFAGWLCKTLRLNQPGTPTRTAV

ASK1 = molecular target: T4, ASK1 (Homo sapiens, UniProt Q99683); test: Kinase panel screen; assay type: biochemical; details: Compound I and ATP 10 μM
T4 construct: purchased Upstate USA or Invitrogen (contract screening service)

MKK7b = molecular target: T5, MKK7b (Homo sapiens, UniProt O14733); test: Kinase panel screen; assay type: biochemical; details: Compound I and ATP 10 μM
T5 construct: purchased Upstate USA or Invitrogen (contract screening service)
T5 sequence (O14733 whole entry): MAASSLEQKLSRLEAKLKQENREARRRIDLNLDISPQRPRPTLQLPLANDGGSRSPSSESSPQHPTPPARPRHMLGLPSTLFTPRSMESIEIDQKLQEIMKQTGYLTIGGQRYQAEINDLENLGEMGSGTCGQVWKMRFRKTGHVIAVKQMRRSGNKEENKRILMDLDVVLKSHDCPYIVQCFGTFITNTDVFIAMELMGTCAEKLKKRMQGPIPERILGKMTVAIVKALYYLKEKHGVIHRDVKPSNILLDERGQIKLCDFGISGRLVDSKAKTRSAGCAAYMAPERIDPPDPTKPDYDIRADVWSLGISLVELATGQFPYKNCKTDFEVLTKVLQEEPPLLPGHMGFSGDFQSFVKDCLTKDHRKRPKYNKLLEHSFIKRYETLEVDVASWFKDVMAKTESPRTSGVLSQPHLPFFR

Pyk2 = molecular target: T6, Pyk2 (Homo sapiens, UniProt Q14289); test: Kinase panel screen; assay type: biochemical; details: Compound I and ATP 10 μM
T6 construct: purchased Upstate USA or Invitrogen (contract screening service)
T6 sequence (Q14289 whole entry): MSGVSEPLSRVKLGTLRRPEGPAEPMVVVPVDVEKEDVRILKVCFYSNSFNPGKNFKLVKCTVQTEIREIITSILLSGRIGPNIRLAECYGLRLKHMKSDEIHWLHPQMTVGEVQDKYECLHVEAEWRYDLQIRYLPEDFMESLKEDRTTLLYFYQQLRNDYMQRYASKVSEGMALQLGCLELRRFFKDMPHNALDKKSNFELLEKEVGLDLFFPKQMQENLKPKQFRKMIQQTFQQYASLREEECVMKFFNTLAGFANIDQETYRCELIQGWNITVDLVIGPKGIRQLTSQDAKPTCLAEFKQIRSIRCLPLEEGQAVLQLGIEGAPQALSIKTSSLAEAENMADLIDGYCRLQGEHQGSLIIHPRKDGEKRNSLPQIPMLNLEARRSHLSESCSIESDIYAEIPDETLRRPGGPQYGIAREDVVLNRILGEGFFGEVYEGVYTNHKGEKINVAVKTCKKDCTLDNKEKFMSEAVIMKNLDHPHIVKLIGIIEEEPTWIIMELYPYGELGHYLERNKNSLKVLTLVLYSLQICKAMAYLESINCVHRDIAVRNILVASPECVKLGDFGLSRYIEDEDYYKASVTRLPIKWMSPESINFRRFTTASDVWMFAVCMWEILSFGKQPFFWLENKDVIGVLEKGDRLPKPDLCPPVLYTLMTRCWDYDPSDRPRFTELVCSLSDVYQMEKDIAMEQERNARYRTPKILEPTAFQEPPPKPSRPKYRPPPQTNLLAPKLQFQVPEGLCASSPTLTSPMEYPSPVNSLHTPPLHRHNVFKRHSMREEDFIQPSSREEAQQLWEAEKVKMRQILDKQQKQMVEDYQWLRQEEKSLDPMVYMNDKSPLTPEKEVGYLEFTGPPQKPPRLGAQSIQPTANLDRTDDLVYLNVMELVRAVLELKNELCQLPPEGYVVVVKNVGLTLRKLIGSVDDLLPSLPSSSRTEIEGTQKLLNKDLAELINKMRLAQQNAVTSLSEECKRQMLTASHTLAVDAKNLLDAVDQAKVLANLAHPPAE

Axl = molecular target: T7, Axl (Homo sapiens, UniProt P30530); test: Kinase panel screen; assay type: biochemical; details: Compound I and ATP 10 μM
T7 construct: purchased Upstate USA or Invitrogen (contract screening service)
T7 sequence (P30530 26-894): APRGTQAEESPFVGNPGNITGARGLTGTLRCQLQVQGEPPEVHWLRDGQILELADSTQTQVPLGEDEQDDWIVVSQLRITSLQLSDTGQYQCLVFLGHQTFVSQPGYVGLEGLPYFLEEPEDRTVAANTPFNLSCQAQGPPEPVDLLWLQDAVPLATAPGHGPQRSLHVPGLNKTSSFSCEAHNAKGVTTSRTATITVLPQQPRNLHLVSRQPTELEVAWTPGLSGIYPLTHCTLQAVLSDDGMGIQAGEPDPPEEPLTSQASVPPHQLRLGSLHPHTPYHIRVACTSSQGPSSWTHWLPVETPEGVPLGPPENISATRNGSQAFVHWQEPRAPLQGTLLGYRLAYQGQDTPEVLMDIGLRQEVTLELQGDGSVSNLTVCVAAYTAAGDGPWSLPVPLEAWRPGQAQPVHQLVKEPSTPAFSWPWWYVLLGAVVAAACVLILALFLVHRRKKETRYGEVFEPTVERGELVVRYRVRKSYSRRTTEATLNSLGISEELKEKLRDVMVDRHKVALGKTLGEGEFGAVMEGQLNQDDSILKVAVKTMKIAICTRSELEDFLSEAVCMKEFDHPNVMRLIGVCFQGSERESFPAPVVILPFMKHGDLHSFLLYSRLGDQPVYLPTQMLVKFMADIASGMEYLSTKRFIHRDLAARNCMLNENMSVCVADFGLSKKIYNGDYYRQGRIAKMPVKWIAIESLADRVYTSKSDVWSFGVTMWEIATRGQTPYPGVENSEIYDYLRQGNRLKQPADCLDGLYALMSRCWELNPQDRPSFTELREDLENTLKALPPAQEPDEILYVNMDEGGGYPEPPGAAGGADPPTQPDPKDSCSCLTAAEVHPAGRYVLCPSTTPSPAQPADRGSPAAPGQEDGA

Bmx = molecular target: T8, Bmx (Homo sapiens, UniProt P51813); test: Kinase panel screen; assay type: biochemical; details: Compound I and ATP 10 μM
T8 construct: purchased Upstate USA or Invitrogen (commercial screening service)

Flt3 = molecular target: T9, Flt3 (Homo sapiens, UniProt P36888); test: Kinase panel screen; assay type: biochemical; details: Compound I and ATP 10 μM
T9 construct: purchased Upstate USA or Invitrogen (commercial screening service)

Fms = molecular target: T10, Fms (Homo sapiens, UniProt P07333); test: Kinase panel screen; assay type: biochemical; details: Compound I and ATP 10 μM
T10 construct: purchased Upstate USA or Invitrogen (commercial screening service)
T10 sequence (P07333 20-972): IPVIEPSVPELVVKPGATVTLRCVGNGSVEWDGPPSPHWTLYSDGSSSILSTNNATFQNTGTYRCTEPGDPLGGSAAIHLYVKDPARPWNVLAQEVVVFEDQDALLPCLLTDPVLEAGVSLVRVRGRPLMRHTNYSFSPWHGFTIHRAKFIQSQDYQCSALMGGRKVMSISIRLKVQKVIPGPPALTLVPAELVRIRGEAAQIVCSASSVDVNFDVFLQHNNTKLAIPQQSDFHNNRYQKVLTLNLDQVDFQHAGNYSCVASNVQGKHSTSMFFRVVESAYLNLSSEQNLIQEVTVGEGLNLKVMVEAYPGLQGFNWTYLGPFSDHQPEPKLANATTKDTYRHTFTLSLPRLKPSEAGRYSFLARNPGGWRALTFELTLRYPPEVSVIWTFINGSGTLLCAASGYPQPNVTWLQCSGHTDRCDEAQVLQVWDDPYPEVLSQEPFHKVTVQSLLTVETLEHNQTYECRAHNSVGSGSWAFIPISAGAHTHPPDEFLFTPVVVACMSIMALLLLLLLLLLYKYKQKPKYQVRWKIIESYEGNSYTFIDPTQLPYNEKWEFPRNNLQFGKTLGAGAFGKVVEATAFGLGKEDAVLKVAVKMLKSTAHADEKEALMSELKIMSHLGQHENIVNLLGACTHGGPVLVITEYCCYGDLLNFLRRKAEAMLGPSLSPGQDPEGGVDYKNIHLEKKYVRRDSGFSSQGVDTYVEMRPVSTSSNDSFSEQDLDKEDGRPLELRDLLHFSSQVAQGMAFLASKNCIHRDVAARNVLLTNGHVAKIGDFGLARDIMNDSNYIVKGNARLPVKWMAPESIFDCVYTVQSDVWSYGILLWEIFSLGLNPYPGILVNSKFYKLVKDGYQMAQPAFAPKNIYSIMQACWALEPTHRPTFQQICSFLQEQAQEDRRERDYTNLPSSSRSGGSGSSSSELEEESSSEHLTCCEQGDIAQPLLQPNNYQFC

NEK2 = molecular target: T11, NEK2 (Homo sapiens, UniProt P51955); test: Kinase panel screen; assay type: biochemical; details: Compound I and ATP 10 μM
T11 construct: purchased Upstate USA or Invitrogen (commercial screening service)
T11 sequence (P51955 whole entry): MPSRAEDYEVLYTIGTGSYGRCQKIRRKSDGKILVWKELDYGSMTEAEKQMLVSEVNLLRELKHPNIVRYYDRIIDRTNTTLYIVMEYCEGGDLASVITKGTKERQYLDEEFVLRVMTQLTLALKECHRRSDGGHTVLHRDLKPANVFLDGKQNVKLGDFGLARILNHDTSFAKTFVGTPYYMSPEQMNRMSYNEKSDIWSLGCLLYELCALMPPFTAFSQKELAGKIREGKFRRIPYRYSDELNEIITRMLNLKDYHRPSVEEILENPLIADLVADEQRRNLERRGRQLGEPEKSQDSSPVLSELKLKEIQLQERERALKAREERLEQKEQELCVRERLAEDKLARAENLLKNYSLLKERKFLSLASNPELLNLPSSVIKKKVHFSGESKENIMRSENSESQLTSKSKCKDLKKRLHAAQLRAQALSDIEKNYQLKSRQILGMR

BTK = molecular target: T12, BTK (Homo sapiens, UniProt Q06187); test: Kinase panel screen; assay type: biochemical; details: Compound I and ATP 10 μM
T12 construct: purchased Upstate USA or Invitrogen (commercial screening service)

NEK7 = molecular target: T13, NEK7 (Homo sapiens, UniProt Q8TDX7); test: Kinase panel screen; assay type: biochemical; details: Compound I and ATP 10 μM
T13 construct: purchased Upstate USA or Invitrogen (commercial screening service)

PAK2 = molecular target: T14, PAK2 (Homo sapiens, UniProt Q13177); test: Kinase panel screen; assay type: biochemical; details: Compound I and ATP 10 μM
T14 construct: purchased Upstate USA or Invitrogen (commercial screening service)

CaMKIV = molecular target: T15, CaMKIV (Homo sapiens, UniProt Q16566); test: Kinase panel screen; assay type: biochemical; details: Compound I and ATP 10 μM
T15 construct: purchased Upstate USA or Invitrogen (commercial screening service)
T15 sequence (Q16566 whole entry): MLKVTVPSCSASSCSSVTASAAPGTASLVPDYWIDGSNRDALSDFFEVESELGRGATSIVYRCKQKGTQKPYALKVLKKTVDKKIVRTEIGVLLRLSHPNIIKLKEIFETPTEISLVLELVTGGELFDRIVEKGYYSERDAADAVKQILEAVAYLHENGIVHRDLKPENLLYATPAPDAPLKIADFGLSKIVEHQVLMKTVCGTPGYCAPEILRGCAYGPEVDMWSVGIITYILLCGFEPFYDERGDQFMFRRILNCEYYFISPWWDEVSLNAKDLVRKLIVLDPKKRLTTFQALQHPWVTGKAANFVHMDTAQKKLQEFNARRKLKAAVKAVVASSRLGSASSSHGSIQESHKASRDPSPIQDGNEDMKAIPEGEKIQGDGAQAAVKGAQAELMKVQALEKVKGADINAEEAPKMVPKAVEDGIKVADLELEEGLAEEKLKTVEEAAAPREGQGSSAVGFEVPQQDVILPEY

CDK1 = molecular target: T16, CDK1 (Homo sapiens, UniProt P06493); test: Kinase panel screen; assay type: biochemical; details: Compound I and ATP 10 μM
T16 construct: purchased Upstate USA or Invitrogen (commercial screening service)

SAPK3 = molecular target: T17, SAPK3 (Homo sapiens, UniProt P53778); test: Kinase panel screen; assay type: biochemical; details: Compound I and ATP 10 μM
T17 construct: purchased Upstate USA or Invitrogen (commercial screening service)

CDK5 = molecular target: T18, CDK5 (Homo sapiens, UniProt Q00535); test: Kinase panel screen; assay type: biochemical; details: Compound I and ATP 10 μM
T18 construct: purchased Upstate USA or Invitrogen (commercial screening service)

JNK1a1 = JNK1a1 (Homo sapiens, UniProt P45983); test: Kinase panel screen; assay type: biochemical; details: Compound I and ATP 10 μM
CHK2 = molecular target: T19, CHK2 (Homo sapiens, UniProt O96017); test: Kinase panel screen; assay type: biochemical; details: Compound I and ATP 10 μM
T19 construct: purchased Upstate USA or Invitrogen (contract screening service)

KDR = molecular target: T20, KDR (Homo sapiens, UniProt P35968); test: Kinase panel screen; assay type: biochemical; details: Compound I and ATP 10 μM
T20 construct: purchased Upstate USA or Invitrogen (contract screening service)

ZAP-70 = molecular target: T21, ZAP-70 (Homo sapiens, UniProt P43403); test: Kinase panel screen; assay type: biochemical; details: Compound I and ATP 10 μM
T21 construct: purchased Upstate USA or Invitrogen (commercial screening service)

MAPK2 = molecular target: T22, MAPK2 (Homo sapiens, UniProt P28482); test: Kinase panel screen; assay type: biochemical; details: Compound I and ATP 10 μM
T22 construct: purchased Upstate USA or Invitrogen (commercial screening service)

Nc1nc(N)c2nc(-c3cccc(O)c3)c(-c3cccc(O)c3)nc2n1 [Compound I, 6,7-bis-(3-hydroxyphenyl)-pteridine-2,4-diamine]
Increase in Paw Volume vs. Controls ([1]; 5 mg/kg iv 30 min before, 3 hours, mean±SEM N=6, vehicle 71 ± 9): 27 ± 4 mm^3 | edema and leukocyte infiltration (histology) ([1]; 5 mg/kg pretreatment, three hours): strongly antagonized; also recorded: blocked | reduction of paw volume ([1]; n=8): 62% | Increase in Paw Volume vs. Controls ([2]; Dextran, 5 mg/kg iv 30 min before, 3 hours, mean±SEM N=6, vehicle 148 ± 6): 32 ± 5 mm^3 | edema and leukocyte infiltration (histology) ([2]; dextran, 5 mg/kg pretreatment, three hours): strongly antagonized; also recorded: blocked | reduction of paw volume ([2]; dextran, n=8): 78% | Percent Control, MAPKAP-K2 (MAPKAP-K2): 107% | Percent Control, Akt1* (Akt1): 96% | Percent Control, MEK2* (MEK2): 94% | Percent Control, ASK1 (ASK1): 105% | Percent Control, MKK7b (MKK7b): 79% | Percent Control, Pyk2 (Pyk2): 68% | Percent Control, Axl (Axl): 76% | Percent Control, Bmx (Bmx): 58% | Percent Control, Flt3 (Flt3): 80% | Percent Control, Fms (Fms): 77% | Percent Control, NEK2 (NEK2): 98% | Percent Control, BTK (BTK): 75% | Percent Control, NEK7 (NEK7): 99% | Percent Control, PAK2 (PAK2): 87% | Percent Control, CaMKIV (CaMKIV): 87% | Percent Control, CDK1 (CDK1): 54% | Percent Control, SAPK3 (SAPK3): 98% | Percent Control, CDK5 (CDK5): 82% | Percent Control, JNK1a1 (JNK1a1): 80% | Percent Control, CHK2 (CHK2): 75% | Percent Control, KDR (KDR): 62% | Percent Control, ZAP-70 (ZAP-70): 96% | Percent Control, MAPK2 (MAPK2): 84%
